The numbers were not newly measured in publication PMC4959752, “Pharmacokinetics in Wistar Rats of 5-[(4-Carboxybutanoyl)Amino]-2-Hydroxybenzoic Acid: A Novel Synthetic Derivative of 5-Aminosalicylic Acid (5-ASA) with Possible Anti-Inflammatory Activity” (PLoS ONE, 2016), which cites them from elsewhere.

For series [1] the following is noted: literature value; cited from earlier work.
Another series concerns plasma protein. The note with it: comparison value; cited from earlier work.

Consider `CC(=O)Oc1ccccc1C(=O)O` [aspirin], for which the plasma half-life in series [1] is reported as 15 min. Regarding `Nc1ccc(O)c(C(=O)O)c1` [5-ASA, 5-aminosalicylic acid], the protein binding in the series on plasma protein is recorded as 40%.
